Assay results as given in US11970494B2, “6-heteroaryloxy benzimidazoles and azabenzimidazoles as JAK2 inhibitors” (Ajax Therapeutics, Inc., priority 2021, dated 2024).

The compounds below were run against T1, JAK2 (JH1 domain-catalytic, Y1007F,Y1008F) kinase (Homo sapiens, UniProt O60674, Y1007F/Y1008F) (assay: JAK2 Binding Assay (JAK2 JH1 Domain Binding Assay)). Conditions: JAK2 JH1 domain binding, qPCR detection; read-out: JAK2 Kd.
T1 construct: made in house; host or cells: transiently transfected HEK293 cells
T1 sequence (O60674 849-1124 Y1007F/Y1008F limits assumed): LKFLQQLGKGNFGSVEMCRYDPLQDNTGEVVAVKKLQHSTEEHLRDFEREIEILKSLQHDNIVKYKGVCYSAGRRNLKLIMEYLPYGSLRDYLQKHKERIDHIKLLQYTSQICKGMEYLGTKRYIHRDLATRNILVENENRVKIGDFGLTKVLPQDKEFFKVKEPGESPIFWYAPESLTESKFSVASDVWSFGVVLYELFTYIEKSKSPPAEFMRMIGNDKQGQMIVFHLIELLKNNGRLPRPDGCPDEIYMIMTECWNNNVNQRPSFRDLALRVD

Row | SMILES | Kd
1 | COCCNCC(=O)Nc1cc(Oc2cnc3nc(Nc4cc(C(F)(F)F)cn(C)c4=O)n(C)c3c2Cl)ccn1 [Example I-85, N-(4-((7-chloro-1-methyl-2-((1-methyl-2-oxo-5-(trifluoromethyl)-1,2-dihydropyridin-3-yl)amino)-1H-imidazo[4,5-b]pyridin-6-yl)oxy)pyridin-2-yl)-2-((2-methoxyethyl)amino)acetamide] | < 10 nM
2 | Cn1cc(C(F)(F)F)cc(Nc2nc3ncc(Oc4ccnc(NC(=O)CNCCF)c4)c(Cl)c3n2C)c1=O [Example I-87, N-(4-((7-chloro-1-methyl-2-((1-methyl-2-oxo-5-(trifluoromethyl)-1,2-dihydropyridin-3-yl)amino)-1H-imidazo[4,5-b]pyridin-6-yl)oxy)pyridin-2-yl)-2-((2-fluoroethyl)amino)acetamide] | < 10 nM
3 | Cn1c(Nc2cc(C(F)(F)F)cn(CCO)c2=O)nc2ncc(Oc3ccnc(NC(=O)C4CC4)c3)c(C#N)c21 [Example I-89, N-(4-((7-cyano-2-((1-(2-hydroxyethyl)-2-oxo-5-(trifluoromethyl)-1,2-dihydropyridin-3-yl)amino)-1-methyl-1H-imidazo[4,5-b]pyridin-6-yl)oxy)pyridin-2-yl)cyclopropanecarboxamide] | < 10 nM
4 | CC(=O)Nc1cc(Oc2cnc3nc(Nc4cc5n(n4)CCCC5(F)F)n(C)c3c2Cl)ccn1 [Example I-92, N-(4-((7-chloro-2-((4,4-difluoro-4,5,6,7-tetrahydropyrazolo[1,5-a]pyridin-2-yl)amino)-1-methyl-1H-imidazo[4,5-b]pyridin-6-yl)oxy)pyridin-2-yl)acetamide] | < 10 nM
5 | CC(=O)Nc1cc(Oc2cnc3nc(Nc4cc5n(n4)CCCC5(F)F)n(C)c3c2C#N)ccn1 [Example I-93, N-(4-((7-cyano-2-((4,4-difluoro-4,5,6,7-tetrahydropyrazolo[1,5-a]pyridin-2-yl)amino)-1-methyl-1H-imidazo[4,5-b]pyridin-6-yl)oxy)pyridin-2-yl)acetamide] | < 10 nM
6 | CC(=O)Nc1cc(Oc2cnc3nc(Nc4cc(C(C)(C)C(F)(F)F)on4)n(C)c3c2C#N)ccn1 [Example I-104, N-(4-((7-cyano-1-methyl-2-((5-(1,1,1-trifluoro-2-methylpropan-2-yl)isoxazol-3-yl)amino)-1H-imidazo[4,5-b]pyridin-6-yl)oxy)pyridin-2-yl)acetamide] | > 5000 nM
7 | CC(=O)Nc1cc(Oc2cnc3nc(Nc4ccc(CN(C)C)c(C(F)(F)F)c4)n(C)c3c2C#N)ccn1 [Example I-105, N-(4-((7-cyano-2-((4-((dimethylamino)methyl)-3-(trifluoromethyl)phenyl)amino)-1-methyl-1H-imidazo[4,5-b]pyridin-6-yl)oxy)pyridin-2-yl)acetamide] | < 10 nM
8 | CC(=O)Nc1cc(Oc2cnc3nc(Nc4cc(C(F)(F)F)n(C5CC6(COC6)C5)n4)n(C)c3c2C#N)ccn1 [Example I-106, N-(4-((2-((1-(2-oxaspiro[3.3]heptan-6-yl)-5-(trifluoromethyl)-1H-pyrazol-3-yl)amino)-7-cyano-1-methyl-1H-imidazo[4,5-b]pyridin-6-yl)oxy)pyridin-2-yl)acetamide] | 10 to 50 nM
9 | COCC(=O)Nc1cc(Oc2cnc3nc(Nc4cc(C(F)(F)F)n(C5CC6(CCOCC6)C5)n4)n(C)c3c2Cl)ccn1 [Example I-107, N-(4-((2-((1-(7-oxaspiro[3.5]nonan-2-yl)-5-(trifluoromethyl)-1H-pyrazol-3-yl)amino)-7-chloro-1-methyl-1H-imidazo[4,5-b]pyridin-6-yl)oxy)pyridin-2-yl)-2-methoxyacetamide] | 10 to 50 nM
10 | COCC(=O)Nc1cc(Oc2cnc3nc(Nc4cc(C(F)(F)F)n(C5CC6(CCOCC6)C5)n4)n(C)c3c2C#N)ccn1 [Example I-110, N-(4-((2-((1-(7-oxaspiro[3.5]nonan-2-yl)-5-(trifluoromethyl)-1H-pyrazol-3-yl)amino)-7-cyano-1-methyl-1H-imidazo[4,5-b]pyridin-6-yl)oxy)pyridin-2-yl)-2-methoxyacetamide] | < 10 nM

Continued, values first:

Row | Kd | SMILES
11 | < 10 nM | Cn1cc(C(F)(F)F)cc(Nc2nc3ncc(Oc4ccnc(NC(=O)CO)c4)c(Cl)c3n2C)c1=O [Example I-86, N-(4-((7-chloro-1-methyl-2-((1-methyl-2-oxo-5-(trifluoromethyl)-1,2-dihydropyridin-3-yl)amino)-1H-imidazo[4,5-b]pyridin-6-yl)oxy)pyridin-2-yl)hydroxyacetamide]
12 | < 10 nM | CC(=O)Nc1cc(Oc2cnc3nc(Nc4ccc(CN(C)C)c(C(F)(F)F)c4)n(C)c3c2Cl)ccn1 [Example I-94, N-(4-((7-chloro-2-((4-((dimethylamino)methyl)-3-(trifluoromethyl)phenyl)amino)-1-methyl-1H-imidazo[4,5-b]pyridin-6-yl)oxy)pyridin-2-yl)acetamide]
13 | < 10 nM | CC(=O)Nc1cc(Oc2cnc3nc(Nc4cc(OC[C@@H]5CCCN5C)cc(C(F)(F)F)c4)n(C)c3c2Cl)ccn1 [Example I-96, (S)-N-(4-((7-chloro-1-methyl-2-((3-((1-methylpyrrolidin-2-yl)methoxy)-5-(trifluoromethyl)phenyl)amino)-1H-imidazo[4,5-b]pyridin-6-yl)oxy)pyridin-2-yl)acetamide]
14 | < 10 nM | CC(=O)Nc1cc(Oc2cnc3nc(Nc4cc(OC[C@H]5CCCN5C)cc(C(F)(F)F)c4)n(C)c3c2Cl)ccn1 [Example I-97, (R)-N-(4-((7-chloro-1-methyl-2-((3-((1-methylpyrrolidin-2-yl)methoxy)-5-(trifluoromethyl)phenyl)amino)-1H-imidazo[4,5-b]pyridin-6-yl)oxy)pyridin-2-yl)acetamide]
15 | < 10 nM | CC(=O)Nc1cc(Oc2cnc3nc(Nc4cc(C(F)(F)F)n(C5CC6(COC6)C5)n4)n(C)c3c2Cl)ccn1 [Example I-98, N-(4-((2-((1-(2-oxaspiro[3.3]heptan-6-yl)-5-(trifluoromethyl)-1H-pyrazol-3-yl)amino)-7-chloro-1-methyl-1H-imidazo[4,5-b]pyridin-6-yl)oxy)pyridin-2-yl)acetamide]
16 | < 10 nM | CC(=O)Nc1cc(Oc2cnc3nc(Nc4cc(O[C@H]5CCN(C)C5)cc(C(F)(F)F)c4)n(C)c3c2Cl)ccn1 [Example I-99, (S)-N-(4-((7-chloro-1-methyl-2-((3-((1-methylpyrrolidin-3-yl)oxy)-5-(trifluoromethyl)phenyl)amino)-1H-imidazo[4,5-b]pyridin-6-yl)oxy)pyridin-2-yl)acetamide]
17 | < 10 nM | CC(=O)Nc1cc(Oc2cnc3nc(Nc4cc(O[C@@H]5CCN(C)C5)cc(C(F)(F)F)c4)n(C)c3c2Cl)ccn1 [Example I-100, (R)-N-(4-((7-chloro-1-methyl-2-((3-((1-methylpyrrolidin-3-yl)oxy)(trifluoromethyl)phenyl)amino)-1H-imidazo[4,5-b]pyridin-6-yl)oxy)pyridin-2-yl)acetamide]
18 | < 10 nM | CC(=O)Nc1cc(Oc2cnc3nc(Nc4cc(COC5CN(C)C5)cc(C(F)(F)F)c4)n(C)c3c2Cl)ccn1 [Example I-101, N-(4-((7-chloro-1-methyl-2-((3-(((1-methylazetidin-3-yl)oxy)methyl)-5-(trifluoromethyl)phenyl)amino)-1H-imidazo[4,5-b]pyridin-6-yl)oxy)pyridin-2-yl)acetamide]
19 | < 10 nM | CC(=O)Nc1cc(Oc2cnc3nc(Nc4cc(OC5CN(C)C5)cc(C(F)(F)F)c4)n(C)c3c2Cl)ccn1 [Example I-103, N-(4-((7-chloro-1-methyl-2-((3-((1-methylazetidin-3-yl)oxy)-5-(trifluoromethyl)phenyl)amino)-1H-imidazo[4,5-b]pyridin-6-yl)oxy)pyridin-2-yl)acetamide]
